Earlier results in patent publication US20090061012A1 (priority 2007, published 2009).

What was measured:
Details in all cases: in vivo
[1] = test system: Lemon, Blue, and Great White Sharks
sharks [2] = test system: sharks
sharks [3] = test system: sharks; remark: listed apart in the source
[4] = test system: shark's respiratory systems via the gill rakes

Compound	repelling sharks relative to pardaxin [1]	also measured
CCCCCCCCCCCCOS(=O)(=O)[O-].[Li+] [LLS, lithium lauryl sulfate]	even better than pardaxin	
CCCCCCCCCCCCOS(=O)(=O)[O-].[Na+] [SDS, sodium dodecyl sulphate]		concentration at which effective as a repellent (sharks [2]): 43.6 ppm
CCCCCCCCCCCCOS(=O)(=O)[O-].[Na+] [SLS, sodium lauryl sulfate]	even better than pardaxin	effectiveness in surrounding-cloud mode dispersions (sharks [3]): not effective
CCCCCCCCCCCCCCCCCCOS(=O)(=O)[O-].[Na+] [SOS, sodium octadecyl sulphate]	even better than pardaxin	
pardaxin		repellent impact on sharks [4]: significant repellent impact
